Experimental data published in article PMC5956890 (Journal of medicinal chemistry, 2017).
Entries after “also recorded” stand apart in the source; their conditions may differ.

Key:
LXRα = molecular target: T1, LXRα (Homo sapiens, UniProt Q13133); experiment: TR-FRET LXRα coactivator assay; type: biochemical; settings: 4 µM, compared to positive control 20
T1 sequence (Q13133 1-447): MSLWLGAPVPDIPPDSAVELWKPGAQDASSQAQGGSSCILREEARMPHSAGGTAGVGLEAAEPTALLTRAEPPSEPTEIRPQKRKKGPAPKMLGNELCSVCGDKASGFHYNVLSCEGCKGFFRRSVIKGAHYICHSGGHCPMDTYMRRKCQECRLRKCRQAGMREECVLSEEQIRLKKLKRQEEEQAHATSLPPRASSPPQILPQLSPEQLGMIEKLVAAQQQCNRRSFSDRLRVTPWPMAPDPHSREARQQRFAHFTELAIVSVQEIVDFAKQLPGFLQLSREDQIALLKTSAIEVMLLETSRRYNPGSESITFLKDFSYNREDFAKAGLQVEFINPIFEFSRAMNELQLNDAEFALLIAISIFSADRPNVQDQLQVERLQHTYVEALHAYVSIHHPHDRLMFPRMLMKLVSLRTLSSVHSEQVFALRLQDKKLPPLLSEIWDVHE

hBM-MSCs [1] = experiment: adiponectin production during adipogenesis in hBM-MSCs; settings: compared to IDX control
PPARα = molecular target: T2, PPARα (Homo sapiens, UniProt Q07869); experiment: TR-FRET competitive binding assay PPARα; settings: for effect on PPARα binding: 4 µM, compared to positive control 19; for replacement of labeled PPARα ligand binding: up to 20 µM
T2 sequence (Q07869 200-468 limits assumed): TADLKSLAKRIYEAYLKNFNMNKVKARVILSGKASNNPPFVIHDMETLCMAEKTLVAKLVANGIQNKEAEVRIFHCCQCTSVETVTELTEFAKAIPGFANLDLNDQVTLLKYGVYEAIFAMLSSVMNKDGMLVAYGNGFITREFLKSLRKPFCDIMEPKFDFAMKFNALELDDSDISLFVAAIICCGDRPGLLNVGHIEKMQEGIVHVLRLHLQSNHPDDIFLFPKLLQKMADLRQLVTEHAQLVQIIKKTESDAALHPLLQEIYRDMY

GR = molecular target: T3, GR (Homo sapiens, UniProt P04150); experiment: TR-FRET competitive binding assay GR; settings: 4 µM, compared to dexamethasone
T3 sequence (P04150 1-777): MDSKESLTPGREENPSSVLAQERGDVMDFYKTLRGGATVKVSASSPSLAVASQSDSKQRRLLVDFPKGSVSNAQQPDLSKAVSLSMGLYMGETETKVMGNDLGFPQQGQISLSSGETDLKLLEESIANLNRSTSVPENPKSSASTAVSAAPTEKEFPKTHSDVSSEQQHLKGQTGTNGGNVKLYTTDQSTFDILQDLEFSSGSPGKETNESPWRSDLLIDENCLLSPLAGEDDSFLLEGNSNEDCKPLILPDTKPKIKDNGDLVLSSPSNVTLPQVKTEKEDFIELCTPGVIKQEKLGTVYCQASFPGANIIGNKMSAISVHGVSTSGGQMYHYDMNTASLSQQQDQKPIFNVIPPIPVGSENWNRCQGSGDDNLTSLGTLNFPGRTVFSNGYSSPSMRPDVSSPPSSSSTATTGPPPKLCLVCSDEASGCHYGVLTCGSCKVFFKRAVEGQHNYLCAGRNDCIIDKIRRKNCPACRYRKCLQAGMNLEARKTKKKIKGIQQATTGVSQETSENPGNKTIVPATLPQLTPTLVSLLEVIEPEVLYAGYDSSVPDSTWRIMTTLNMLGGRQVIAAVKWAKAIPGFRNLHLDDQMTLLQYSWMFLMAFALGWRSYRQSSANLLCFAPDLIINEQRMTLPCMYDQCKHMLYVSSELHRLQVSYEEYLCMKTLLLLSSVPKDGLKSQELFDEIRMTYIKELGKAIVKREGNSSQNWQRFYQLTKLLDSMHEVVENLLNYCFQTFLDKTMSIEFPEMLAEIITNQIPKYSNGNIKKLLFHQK

[2] = tested on: STZ-induced diabetic C57BL/6J mice; experiment: STZ-induced diabetes mouse model; type: in vivo; settings: oral 20 mg/kg for 5 days, male C57BL/6J
PPARδ [3] = molecular target: T4, PPARδ (Homo sapiens, UniProt Q03181); experiment: TR-FRET PPARδ coactivator assay; type: biochemical; settings: compound alone
T4 sequence (Q03181 211-439 limits assumed): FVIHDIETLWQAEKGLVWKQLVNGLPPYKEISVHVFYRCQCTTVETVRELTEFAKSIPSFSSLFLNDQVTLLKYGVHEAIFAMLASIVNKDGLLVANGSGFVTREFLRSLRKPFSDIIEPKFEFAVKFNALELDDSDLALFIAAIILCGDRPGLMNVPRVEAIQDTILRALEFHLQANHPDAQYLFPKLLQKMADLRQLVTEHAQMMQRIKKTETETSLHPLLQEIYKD

CDK5/p35 = CDK5/p35 (Homo sapiens, UniProt Q00535); experiment: KinaseProfiler kinase assay CDK5/p35; type: biochemical; settings: up to 20 µM, Km ATP
CDK5/p35, sequence (Q00535 whole entry): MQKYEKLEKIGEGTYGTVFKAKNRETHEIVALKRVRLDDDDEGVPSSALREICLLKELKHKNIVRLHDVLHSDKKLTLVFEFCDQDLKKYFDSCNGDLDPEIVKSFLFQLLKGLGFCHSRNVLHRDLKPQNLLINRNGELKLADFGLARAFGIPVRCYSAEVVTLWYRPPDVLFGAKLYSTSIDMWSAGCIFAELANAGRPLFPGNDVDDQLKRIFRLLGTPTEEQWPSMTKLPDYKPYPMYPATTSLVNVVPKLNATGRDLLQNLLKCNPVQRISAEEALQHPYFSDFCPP
CDK5/p35, sequence (Q15078 2-307 partner limits assumed): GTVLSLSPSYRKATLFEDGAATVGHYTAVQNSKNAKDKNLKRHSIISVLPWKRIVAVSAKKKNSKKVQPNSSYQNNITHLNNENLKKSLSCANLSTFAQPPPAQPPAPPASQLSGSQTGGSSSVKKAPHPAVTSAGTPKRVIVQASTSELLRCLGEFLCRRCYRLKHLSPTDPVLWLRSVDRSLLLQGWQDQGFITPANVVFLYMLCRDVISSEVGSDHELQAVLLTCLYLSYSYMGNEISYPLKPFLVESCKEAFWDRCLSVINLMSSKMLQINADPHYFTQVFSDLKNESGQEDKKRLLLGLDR

hBM-MSCs [4] = experiment: Oil Red O staining of lipid droplets in hBM-MSCs; type: cell-based, human; settings: compared with IDX control, 7th day
CDK5/p25 = CDK5/p25 (Homo sapiens, UniProt Q00535); experiment: KinaseProfiler kinase assay CDK5/p25; type: biochemical; settings: up to 20 µM, Km ATP
CDK5/p25, sequence (Q00535 whole entry): as the sequence (Q00535 whole entry) above
CDK5/p25, sequence (Q15078 99-307 partner limits assumed): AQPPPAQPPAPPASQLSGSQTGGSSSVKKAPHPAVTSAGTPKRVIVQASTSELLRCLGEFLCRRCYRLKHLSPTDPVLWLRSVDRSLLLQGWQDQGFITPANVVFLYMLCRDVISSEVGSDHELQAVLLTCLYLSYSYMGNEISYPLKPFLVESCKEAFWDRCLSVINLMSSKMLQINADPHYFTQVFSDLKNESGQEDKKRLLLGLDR

LXRβ = molecular target: T5, LXRβ (Homo sapiens, UniProt P55055); experiment: TR-FRET LXRβ coactivator assay; type: biochemical; settings: 4 µM, compared to positive control 20
T5 sequence (P55055 1-460): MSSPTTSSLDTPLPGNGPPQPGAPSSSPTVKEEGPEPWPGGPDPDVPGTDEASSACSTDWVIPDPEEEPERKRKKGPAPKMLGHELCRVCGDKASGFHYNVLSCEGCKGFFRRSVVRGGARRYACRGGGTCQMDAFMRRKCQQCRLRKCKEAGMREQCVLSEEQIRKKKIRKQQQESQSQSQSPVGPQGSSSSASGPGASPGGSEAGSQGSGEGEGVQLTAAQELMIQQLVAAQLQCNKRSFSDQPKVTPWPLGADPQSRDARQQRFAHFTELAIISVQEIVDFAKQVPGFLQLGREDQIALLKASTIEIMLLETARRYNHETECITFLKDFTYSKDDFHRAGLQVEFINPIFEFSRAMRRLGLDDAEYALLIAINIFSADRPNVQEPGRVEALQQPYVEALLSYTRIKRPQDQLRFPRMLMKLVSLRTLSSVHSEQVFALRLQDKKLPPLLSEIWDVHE

PPARγ = molecular target: T6, PPARγ (Homo sapiens, UniProt P37231); experiment: TR-FRET competitive binding assay PPARγ; settings: concentration-response
T6 sequence (P37231 235-505 limits assumed): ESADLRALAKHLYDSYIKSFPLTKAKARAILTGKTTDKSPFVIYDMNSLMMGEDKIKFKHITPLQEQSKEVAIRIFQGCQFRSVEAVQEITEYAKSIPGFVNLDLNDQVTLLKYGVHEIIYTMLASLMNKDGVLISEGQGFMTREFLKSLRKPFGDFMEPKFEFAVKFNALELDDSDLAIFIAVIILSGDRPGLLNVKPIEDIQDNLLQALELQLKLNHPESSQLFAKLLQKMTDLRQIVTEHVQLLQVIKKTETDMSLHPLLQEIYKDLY

hA2AAR = settings: cited from earlier work
hA1AR = settings: cited from earlier work
PPARδ [5] = molecular target: T7, PPARδ (Homo sapiens, UniProt Q03181); experiment: TR-FRET competitive binding assay PPARδ; settings: concentration-response
T7 sequence (Q03181 1-441): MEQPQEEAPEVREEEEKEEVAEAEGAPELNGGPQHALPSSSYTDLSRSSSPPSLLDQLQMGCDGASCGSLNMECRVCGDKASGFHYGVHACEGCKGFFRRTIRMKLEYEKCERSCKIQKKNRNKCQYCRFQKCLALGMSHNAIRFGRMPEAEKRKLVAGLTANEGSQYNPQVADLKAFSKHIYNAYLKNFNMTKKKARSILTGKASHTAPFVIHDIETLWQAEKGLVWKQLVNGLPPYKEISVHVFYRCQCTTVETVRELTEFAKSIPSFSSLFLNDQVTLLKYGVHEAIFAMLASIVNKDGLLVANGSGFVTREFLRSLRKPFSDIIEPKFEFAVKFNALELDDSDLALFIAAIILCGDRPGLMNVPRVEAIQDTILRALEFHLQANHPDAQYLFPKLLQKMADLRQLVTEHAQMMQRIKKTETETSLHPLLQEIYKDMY

Row | SMILES | effect on LXRα coactivation (LXRα) | effect on PPARα binding (PPARα) | replacement of labeled PPARα ligand binding (PPARα) | effect on GR binding (GR) | effect on CDK5/p35 kinase activity (CDK5/p35) | effect on CDK5/p25 kinase activity (CDK5/p25) | effect on LXRβ coactivation (LXRβ) | % displacement at 1 µM (hA1AR) (hA1AR) | also measured
1 | CNC(=O)[C@H]1O[C@@H](n2cnc3c(NCc4cccc(I)c4)ncnc32)[C@H](O)[C@@H]1O [Compound 1a, N^6-(3-iodobenzyl)adenosine-5′-N-methyluronamide] | no significant effects | no significant effects | ≤ 50% | no significant effects | Neither 1a nor 1b affected CDK activity | Neither 1a nor 1b affected CDK activity | no significant effects |  | adiponectin production during adipogenesis (hBM-MSCs [1]): significantly promoted adiponectin production; also recorded: upregulated adiponectin production during adipogenesis in hBM-MSCs in a concentration-dependent manner; serum triglyceride levels [2]: downregulated serum triglyceride levels; serum glucose levels ([2]; 20 mg/kg): tended to decrease serum glucose levels; recruitment of labeled coactivator peptide to PPARδ (PPARδ [3]): no effect on the recruitment of the labeled coactivator peptide; lipid droplets in differentiated adipocytes (ORO staining) (hBM-MSCs [4]): increased the number and size of lipid droplets
2 | CNC(=O)[C@H]1O[C@@H](n2cnc3c(NCc4cccc(I)c4)nc(Cl)nc32)[C@H](O)[C@@H]1O [Compound 1b] | no significant effects | no significant effects | ≤ 50% | no significant effects | Neither 1a nor 1b affected CDK activity | Neither 1a nor 1b affected CDK activity | no significant effects |  | PPARγ binding activity (PPARγ): significant competitive binding activity
3 | O=C(NC1CC1)[C@H]1S[C@@H](n2cnc3c(NCc4cccc(I)c4)ncnc32)[C@H](O)[C@@H]1O [Compound 2b, (2S,3S,4R,5R)-N-Cyclopropyl-3,4-dihydroxy-5-(6-((3-iodobenzyl)amino)-9H-purin-9-yl)tetrahydrothiophene-2-carboxamide] |  |  |  |  |  |  |  |  | Ki (hA2AAR; read-out: Ki (hA2AAR)): 15.2 ± 2.6 nM
4 | O[C@@H]1[C@H](O)CS[C@H]1n1cnc2c(NCc3cccc(Cl)c3)nc(Cl)nc21 [Compound 3b, (2R,3R,4S)-2-(2-Chloro-6-((3-chlorobenzyl)amino)-9H-purin-9-yl)tetrahydrothiophene-3,4-diol] |  |  |  |  |  |  |  | 38% | PPARδ binding activity (PPARδ [5]): maximal PPARδ binding activity; % displacement at 1 µM (hA2AAR) (hA2AAR; 1 µM): 18%
5 | O[C@@H]1[C@H](O)CS[C@H]1n1cnc2c(NCc3ccccc3Cl)nc(Cl)nc21 [Compound 3c, (2R,3R,4S)-2-(2-Chloro-6-((2-chlorobenzyl)amino)-9H-purin-9-yl)tetrahydrothiophene-3,4-diol] |  |  |  |  |  |  |  | 13% | 
